Data published in US5856510A, “5-alkenyl and 5-alkynyl indole compounds” (Allelix Biopharmaceuticals Inc., priority 1996, dated 1999).
Where two headings read alike, the source gives them in different places.

Molecular target: T1, 5-HT1D-like receptor (rabbit isolated saphenous vein) (Oryctolagus cuniculus, UniProt P49144)
T1 construct: contracting the rabbit saphenous vein; from tissue; host or cells: rabbit saphenous vein rings, endothelium removed
Assay: Agonist Assay: contraction of the rabbit isolated saphenous vein (5-HT1D-like receptor agonist activity)
Assay type: cell-based, rabbit (male New Zealand White)

T1 sequence (P49144 whole entry): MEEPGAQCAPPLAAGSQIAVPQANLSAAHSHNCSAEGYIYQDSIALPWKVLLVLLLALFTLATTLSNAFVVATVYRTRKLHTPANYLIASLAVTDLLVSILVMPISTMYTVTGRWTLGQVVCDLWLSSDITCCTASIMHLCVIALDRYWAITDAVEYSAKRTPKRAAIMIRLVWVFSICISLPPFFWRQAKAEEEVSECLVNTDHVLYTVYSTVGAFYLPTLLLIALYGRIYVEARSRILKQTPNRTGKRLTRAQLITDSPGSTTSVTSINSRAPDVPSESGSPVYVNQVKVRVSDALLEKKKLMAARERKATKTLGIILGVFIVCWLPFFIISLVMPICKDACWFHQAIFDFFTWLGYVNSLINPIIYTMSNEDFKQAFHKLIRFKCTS

For `C=Cc1ccc2[nH]cc(CCN(C)C)c2c1` [Example 7a, 3-[2-(N,N-Dimethylamino)ethyl]-5-vinyl-1H-indole], which EC50 is on record?
Its EC50 is 130 nM.

How did the EC50 turn out when `C=Cc1ccc2[nH]cc(CCN3CCCC3)c2c1` [Example 7b, 3-[2-(N-Pyrrolidinyl)ethyl]-5-vinyl-1H-indole] was run?
The EC50 was 5800 nM.

For `C=Cc1ccc2[nH]cc(C[C@H]3CCCN3C)c2c1` [Example 7c, (R)-3-[(N-Methylpyrrolidin-2-yl)methyl]-5-vinyl-1H-indole], which EC50 is on record?
The EC50 was 80 nM.

How did the EC50 (contraction of rabbit isolated saphenous vein, concentration causing 50% of the maximum contraction effected by the compound, prazosin, idazoxan and indomethacin 1 μM each, 37° C., pH 7.4, read-out: EC50) turn out when `C=Cc1ccc2[nH]cc(C3CCN(C)C3)c2c1` (stereo not shown) [Example 7d, 3-(N-Methylpyrrolidin-3-yl)-5-vinyl-1H-indole] was run?
Its EC50 is 180 nM.
